Measurements reported in patent US20240109918A1, “HETEROCYCLIC COMPOUNDS AND USES THEREOF” (Kumquat Biosciences Inc., priority 2022, published 2024).

Assays:
[1] = target: T1, KRASwt (Homo sapiens, UniProt P01116); assay: Bio-Biochem-PPI-HTRF Ras-SOS1 interaction assay (KRAS wt); format: biochemical; details: 5 nM
T1 construct: made in house; host or cells: E. coli BL21 (DE3)
How it was run: (§1)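 HTRF readout (ex 337 nm; em 620 and 665 nm) after ≥~10 min incubation; IC50 fitted from 665/620 ratio. GST-K-Ras wt or G12D plus anti-GST-Eu(K), His-hSOS1 plus anti-6His-XL665; duplicate dilutions, 10 μM top.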

[2] = target: T2, KRASG12D (Homo sapiens, UniProt P01116, G12D); assay: Bio-Biochem-PPI-HTRF Ras-SOS1 interaction assay (KRAS G12D); format: biochemical; details: 5 nM
T2 construct: made in house; host or cells: E. coli BL21 (DE3)
How it was run: as §1

T1 sequence (P01116 1-188 isoform P01116-2): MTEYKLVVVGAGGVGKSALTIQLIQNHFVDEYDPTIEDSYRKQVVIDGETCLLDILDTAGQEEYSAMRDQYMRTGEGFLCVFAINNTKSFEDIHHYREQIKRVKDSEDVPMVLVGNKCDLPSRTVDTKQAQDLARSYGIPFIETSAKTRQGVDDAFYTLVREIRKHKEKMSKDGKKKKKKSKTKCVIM
T2 sequence (P01116 1-188 isoform P01116-2 G12D): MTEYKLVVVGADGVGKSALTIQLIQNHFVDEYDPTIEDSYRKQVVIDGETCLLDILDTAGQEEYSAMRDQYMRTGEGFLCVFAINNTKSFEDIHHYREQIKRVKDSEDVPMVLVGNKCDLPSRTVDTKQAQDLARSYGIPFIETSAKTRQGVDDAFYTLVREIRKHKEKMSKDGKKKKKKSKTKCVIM

Row | IC50 [1] [µM] | IC50 [2] [µM] | Structure (SMILES)
1 | < 5 | < 5 | N#Cc1c(N)sc2c(F)ccc(-c3c(Cl)cc4c(N5CCC(CO)CC6(CN(C(=O)[C@@H]7CC7(F)F)C6)C5)nc(OC[C@@]56CCCN5C[C@H](F)C6)nc4c3F)c12 (stereo partly drawn) [compound 332, 2-amino-4-(6-chloro-4-(2-((S)-2,2-difluorocyclopropane-1-carbonyl)-9-(hydroxymethyl)-2,6-diazaspiro[3.6]decan-6-yl)-8-fluoro-2-(((2R,7aS)-2-fluorotetrahydro-1H-pyrrolizin-7a(5H)-yl)methoxy)quinazolin-7-yl)-7-fluorobenzo[b]thiophene-3-carbonitrile]
2 | < 5 | < 5 | C#CN1CCC2(CCN(c3nc(OC[C@@]45CCCN4C[C@H](F)C5)nc4c(F)c(-c5ccc(F)c6sc(N)c(C#N)c56)c(Cl)cc34)C2)C1=O (stereo partly drawn) [compound 225, 2-amino-4-(6-chloro-4-(7-ethynyl-6-oxo-2,7-diazaspiro[4.4]nonan-2-yl)-8-fluoro-2-(((2R,7aS)-2-fluorotetrahydro-1H-pyrrolizin-7a(5H)-yl)methoxy)quinazolin-7-yl)-7-fluorobenzo[b]thiophene-3-carbonitrile]
3 | < 5 | < 5 | N#Cc1c(N)sc2c(F)ccc(-c3c(Cl)cc4c(N5CCOC6(CN(C(=O)C(F)Cl)C6)C5)nc(OC[C@@]56CCCN5C[C@H](F)C6)nc4c3F)c12 (stereo partly drawn) [compound 200, 2-amino-4-(6-chloro-4-(2-(2-chloro-2-fluoroacetyl)-5-oxa-2,8-diazaspiro[3.5]nonan-8-yl)-8-fluoro-2-(((2R,7aS)-2-fluorotetrahydro-1H-pyrrolizin-7a(5H)-yl)methoxy)quinazolin-7-yl)-7-fluorobenzo[b]thiophene-3-carbonitrile]
4 | < 5 | < 5 | CCN(C(=O)N1CC2(C1)CN(c1nc(OC[C@@]34CCCN3C[C@H](F)C4)nc3c(F)c(-c4ccc(F)c5sc(N)c(C#N)c45)c(Cl)cc13)CC(F)(F)O2)C(C)C [compound 153, 8-(7-(2-amino-3-cyano-7-fluorobenzo[b]thiophen-4-yl)-6-chloro-8-fluoro-2-(((2R,7aS)-2-fluorotetrahydro-1H-pyrrolizin-7a(5H)-yl)methoxy)quinazolin-4-yl)-N-ethyl-6,6-difluoro-N-isopropyl-5-oxa-2,8-diazaspiro[3.5]nonane-2-carboxamide]
5 | < 5 | < 5 | C[C@H](Oc1nc(N2CCCC3(CN(C(=O)c4ccnn4C)C3)C2)c2cc(Cl)c(-c3ccc(F)c4sc(N)c(C#N)c34)c(F)c2n1)[C@@H]1CCCN1C [compound 127, 2-amino-4-(6-chloro-8-fluoro-4-(2-(1-methyl-1H-pyrazole-5-carbonyl)-2,6-diazaspiro[3.5]nonan-6-yl)-2-((S)-1-((S)-1-methylpyrrolidin-2-yl)ethoxy)quinazolin-7-yl)-7-fluorobenzo[b]thiophene-3-carbonitrile]
6 | < 5 | < 5 | CC(C)NC(=O)N1CC2(CC(Nc3nc(OCC45CCCN4C[C@H](F)C5)nc4c(F)c(-c5ccc(F)c6sc(N)c(C#N)c56)c(Cl)cc34)C2)C1 (stereo partly drawn) [compound 151, 6-((7-(2-amino-3-cyano-7-fluorobenzo[b]thiophen-4-yl)-6-chloro-8-fluoro-2-(((2R)-2-fluorotetrahydro-1H-pyrrolizin-7a(5H)-yl)methoxy)quinazolin-4-yl)amino)-N-isopropyl-2-azaspiro[3.3]heptane-2-carboxamide]
7 | < 5 | < 5 | N#Cc1c(N)sc2c(F)ccc(-c3c(Cl)cc4c(N5CCCCC6(CN(C(=O)C7(C(F)F)COC7)C6)C5)nc(OC[C@@]56CCCN5C[C@H](F)C6)nc4c3F)c12 [compound 340, 2-amino-4-(6-chloro-4-(2-(3-(difluoromethyl)oxetane-3-carbonyl)-2,6-diazaspiro[3.6]decan-6-yl)-8-fluoro-2-(((2R,7aS)-2-fluorotetrahydro-1H-pyrrolizin-7a(5H)-yl)methoxy)quinazolin-7-yl)-7-fluorobenzo[b]thiophene-3-carbonitrile]
8 | < 5 | < 5 | CN(C)CCC(=O)N1CC2(C1)CN(c1nc(OC[C@@]34CCCN3C[C@H](F)C4)nc3c(F)c(-c4ccc(F)c5sc(N)c(C#N)c45)c(Cl)cc13)CCO2 [compound 312, 2-amino-4-(6-chloro-4-(2-(3-(dimethylamino)propanoyl)-5-oxa-2,8-diazaspiro[3.5]nonan-8-yl)-8-fluoro-2-(((2R,7aS)-2-fluorotetrahydro-1H-pyrrolizin-7a(5H)-yl)methoxy)quinazolin-7-yl)-7-fluorobenzo[b]thiophene-3-carbonitrile]
9 | < 5 | < 5 | CN(C)C/C=C/C(=O)N1CC2(CCCN(c3nc(OC[C@@]45CCCN4C[C@H](F)C5)nc4c(F)c(-c5ccc(F)c6sc(N)c(C#N)c56)c(Cl)cc34)C2)C1 [compound 189, 2-amino-4-(6-chloro-4-(2-((E)-4-(dimethylamino)but-2-enoyl)-2,6-diazaspiro[3.5]nonan-6-yl)-8-fluoro-2-(((2R,7aS)-2-fluorotetrahydro-1H-pyrrolizin-7a(5H)-yl)methoxy)quinazolin-7-yl)-7-fluorobenzo[b]thiophene-3-carbonitrile]
10 | < 5 | < 5 | N#Cc1c(N)sc2c(F)ccc(-c3c(Cl)cc4c(N5CC(F)(F)C6(CN(C(=O)C(F)F)C6)C5)nc(OC[C@@]56CCCN5C[C@H](F)C6)nc4c3F)c12 [compound 330, 2-amino-4-(6-chloro-4-(2-(2,2-difluoroacetyl)-8,8-difluoro-2,6-diazaspiro [3.4]octan-6-yl)-8-fluoro-2-(((2R,7aS)-2-fluorotetrahydro-1H-pyrrolizin-7a(5H)-yl)methoxy)quinazolin-7-yl)-7-fluorobenzo[b]thiophene-3-carbonitrile]
11 | < 5 | < 5 | C[C@H](Oc1nc(N2CCCC3(CNC3)C2)c2cc(Cl)c(-c3ccc(F)c4sc(N)c(C#N)c34)c(F)c2n1)[C@@H]1CCCN1C [compound 122, 2-amino-4-(6-chloro-8-fluoro-2-((S)-1-((S)-1-methylpyrrolidin-2-yl)ethoxy)-4-(2,6-diazaspiro[3.5]nonan-6-yl)quinazolin-7-yl)-7-fluorobenzo[b]thiophene-3-carbonitrile]
12 | < 5 | < 5 | N#CCC(=O)N1CC2(CCCCN(c3nc(OC[C@@]45CCCN4C[C@H](F)C5)nc4c(F)c(-c5ccc(F)c6sc(N)c(C#N)c56)c(Cl)cc34)C2)C1 [compound 194, 2-amino-4-(6-chloro-4-(2-(2-cyanoacetyl)-2,6-diazaspiro[3.6]decan-6-yl)-8-fluoro-2-(((2R,7aS)-2-fluorotetrahydro-1H-pyrrolizin-7a(5H)-yl)methoxy)quinazolin-7-yl)-7-fluorobenzo[b]thiophene-3-carbonitrile]
13 | < 5 | < 5 | N#Cc1c(N)sc2c(F)ccc(-c3c(Cl)cc4c(N5CCC(C(F)F)CC6(CN(C(=O)[C@@H]7CC7(F)F)C6)C5)nc(OC[C@@]56CCCN5C[C@H](F)C6)nc4c3F)c12 (stereo partly drawn) [compound 254, 2-amino-4-(6-chloro-4-(2-((S)-2,2-difluorocyclopropane-1-carbonyl)-9-(difluoromethyl)-2,6-diazaspiro[3.6]decan-6-yl)-8-fluoro-2-(((2R,7aS)-2-fluorotetrahydro-1H-pyrrolizin-7a(5H)-yl)methoxy)quinazolin-7-yl)-7-fluorobenzo[b]thiophene-3-carbonitrile]
14 | < 5 | < 5 | C#Cc1c(F)ccc2cc(O)cc(-c3ncc4c(N5CCCCC6(CN(C(=O)[C@@H]7CC7(F)F)C6)C5)nc(OC[C@@]56CCCN5C[C@H](F)C6)nc4c3F)c12 [compound 334, ((S)-2,2-difluorocyclopropyl) (6-(7-(8-ethynyl-7-fluoro-3-hydroxynaphthalen-1-yl)-8-fluoro-2-(((2R,7aS)-2-fluorotetrahydro-1H-pyrrolizin-7a(5H)-yl)methoxy)pyrido[4,3-d]pyrimidin-4-yl)-2,6-diazaspiro[3.6]decan-2-yl)methanone]
15 | < 5 | < 5 | N#Cc1c(N)sc2c(F)ccc(-c3c(Cl)cc4c(N5CCCCC6(CN(C=O)C6)C5)nc(OC[C@@]56CCCN5C[C@H](F)C6)nc4c3F)c12 [compound 271, 2-amino-4-(6-chloro-8-fluoro-2-(((2R,7aS)-2-fluorotetrahydro-1H-pyrrolizin-7a(5H)-yl)methoxy)-4-(2-formyl-2,6-diazaspiro[3.6]decan-6-yl)quinazolin-7-yl)-7-fluorobenzo[b]thiophene-3-carbonitrile]
16 | < 5 | < 5 | CN1CCC[C@H]1COc1nc(N2CCCC3(CN(C(N)=O)C3)C2)c2cc(Cl)c(-c3cccc4sc(N)nc34)c(F)c2n1 [compound 124, 6-(7-(2-aminobenzo[d]thiazol-4-yl)-6-chloro-8-fluoro-2-(((S)-1-methylpyrrolidin-2-yl)methoxy)quinazolin-4-yl)-2,6-diazaspiro[3.5]nonane-2-carboxamide]
17 | < 5 | < 5 | Nc1nc2c(-c3c(Cl)cc4c(N5CCCC6(CCNC6)C5)nc(OC[C@@]56CCCN5C[C@H](F)C6)nc4c3F)ccc(F)c2s1 (stereo partly drawn) [compound 130, 4-(6-chloro-8-fluoro-2-(((2R,7aS)-2-fluorotetrahydro-1H-pyrrolizin-7a(5H)-yl)methoxy)-4-(2,7-diazaspiro[4.5]decan-7-yl)quinazolin-7-yl)-7-fluorobenzo[d]thiazol-2-amine]
18 | < 5 | < 5 | N#Cc1c(N)sc2c(F)ccc(-c3c(Cl)cc4c(N5CCCCC6(CN(C(=O)C7CC(C#N)C7)C6)C5)nc(OC[C@@]56CCCN5C[C@H](F)C6)nc4c3F)c12 (stereo partly drawn) [compound 294, 2-amino-4-(6-chloro-4-(2-(3-cyanocyclobutane-1-carbonyl)-2,6-diazaspiro[3.6]decan-6-yl)-8-fluoro-2-(((2R,7aS)-2-fluorotetrahydro-1H-pyrrolizin-7a(5H)-yl)methoxy)quinazolin-7-yl)-7-fluorobenzo[b]thiophene-3-carbonitrile]
